Test results taken from PMC4785407, “Reduction Impairs the Antibacterial Activity but Benefits the LPS Neutralization Ability of Human Enteric Defensin 5” (Scientific Reports, 2016).
Entries after “also recorded” stand apart in the source; their conditions may differ. Peptide text beside a SMILES is read from it.

Experiments:
[1] = test system: E. coli ML35 (ATCC 43827) cells; test: Zeta potential determination; type: cell-based
Experimental: Samples were equilibrated at 25 °C for 2 min. Zeta potential was determined using the Zetasizer Nano ZS (Malvern Instruments, UK). A total of 6 measurements of 100 runs were carried out for each sample.

[2] = test system: E. coli ML35 (ATCC 43827) outer membrane; test: Outer membrane penetration (NPN uptake assay); type: cell-based; details: 6.25 μg/mL, 10 mM sodium phosphate buffer pH 7.4, 37 °C, 1 h; vs HD5OX
Experimental: Then, an aliquot of 10 μL of NPN (Sigma 104043) was added, resulting in a final concentration of 10 μM. After excitation at 350 nm, the fluorescent intensity was measured in the range from 380-450 nm at intervals of 2 nm using a Tecan Infinite […] microplate reader.

CC[C@H](C)[C@H](NC(=O)[C@H](CCC(=O)O)NC(=O)[C@H](CS)NC(=O)[C@@H](NC(=O)CNC(=O)[C@H](CO)NC(=O)[C@H](CC(C)C)NC(=O)[C@H](CO)NC(=O)[C@H](CCC(=O)O)NC(=O)[C@H](CCCNC(=N)N)NC(=O)[C@@H](NC(=O)[C@H](C)NC(=O)[C@H](CS)NC(=O)[C@H](CCCNC(=N)N)NC(=O)CNC(=O)[C@@H](NC(=O)[C@H](CCCNC(=N)N)NC(=O)[C@H](CS)NC(=O)[C@H](Cc1ccc(O)cc1)NC(=O)[C@H](CS)NC(=O)[C@@H](NC(=O)[C@H](C)N)[C@@H](C)O)[C@@H](C)O)[C@@H](C)O)C(C)C)C(=O)N[C@@H](CO)C(=O)NCC(=O)N[C@@H](CCCNC(=N)N)C(=O)N[C@@H](CC(C)C)C(=O)N[C@@H](Cc1ccc(O)cc1)C(=O)N[C@@H](CCCNC(=N)N)C(=O)N[C@@H](CC(C)C)C(=O)N[C@@H](CS)C(=O)N[C@@H](CS)C(=O)N[C@@H](CCCNC(=N)N)C(=O)O [HD5RED] (H-ATCYCRTGRCATRESLSGVCEISGRLYRLCCR-OH)
zeta potential of cells, compared with HD5OX ([1]; 12.5 and 50 μg/mL, peptide vs HD5OX): significantly less than that of cells treated with HD5OX; also recorded: less efficient in altering the bacterial surface charge than HD5OX
zeta potential of cells ([1]; E. coli ML35 cells, 10 mM sodium phosphate buffer pH 7.4, 1% TSB, 25 °C): approximately −37 mV
outer membrane destruction (NPN fluorescence intensity) [2]: destroys the outer membrane less effectively than HD5OX
